Results reported in US11707440B2 (priority 2017, dated 2023).

Key:
[1] = Pharmacokinetics of intranasal esketamine in healthy subjects (Example 9); conditions: healthy subjects; 28, 56 and 84 mg
Method: Pharmacokinetic blood samples for measurement of esketamine and noresketamine concentrations in plasma were collected from predose until up to 24 hours after each intranasal esketamine regimen on Day 1 of each period.
Blood samples (4 mL each) for determination of esketamine and noresketamine plasma concentrations were collected into the appropriate collection tube (e.g., Vacutainer®) at timepoints 0.00, 0.12, 0.20, 0.37, 0.53, 0.67, 0.83, 1.00, 1.25, 1.50, 2.00, 3.00, 4.00, 6.00, 9.00, 12.00, 18.00, and 24.00 h. The total amount of blood to be drawn for clinical laboratory tests and PK evaluations is approximately 327 mL.
Plasma samples were analyzed for esketamine and noresketamine concentrations using the validated, specific and sensitive liquid chromatography coupled to tandem mass spectrometry (LC-MS/MS) achiral method of Example 8.
Serial PK blood samples (4 mL each) were collected for a 24-hour period from each subject (Periods 1, 2, and 3). […] Statistical Methods 1.6.4.1. Sample Size
The following key parameters of esketamine and noresketamine in plasma were calculated using noncompartmental methods and actual sampling times: Cmax, tmax, AUClast, AUC∞, t1/2,λ, and λz.

[2] = system: subjects with MDD at imminent risk for suicide; assay: MADRS suicide item, […]2001; type: in vivo, human; conditions: 84 mg, ITT Analysis Set
Excerpt: • a. Changes from baseline to Day 2 and Day 25 for the MADRS total score • b. Changes from baseline to Day 1 4-hours postdose, Day 2 and Day 25 for the MADRS Suicide Item • c. Changes from baseline to Day 1 4-hours postdose, Day 2, and Day 25 for the clinical global judgment of suicide risk from the Suicide Ideation and Behavior Assessment Tool (SIBAT) • d. Sustained response (Onset of Clinical Response) defined as at least 50% reduction from baseline in MADRS total score with onset on Day 1 that is maintained through the end of the double-blind phase (Day 25) • e. Changes from baseline to Day 1 4-hours postdose, Day 2, and Day 25 for the Beck Scale for Suicidal Ideation (BSS) • f. Changes from baseline to Day 1 4-hours postdose and Day 25 for the Beck Hopelessness Scale
Results of the change from baseline over time for the suicide item from the MADRS assessment can be found in Attachment 1.

[3] = system: female Sprague-Dawley rats, PCG/RSC of the brain; assay: 14-day repeated dose neurotoxicity study, intranasal instillation; conditions: 14-day study, 54 mg/day
Method: Esketamine HCl was administered into each nostril of female rats at a volume of 50 μl per nostril either once, twice or thrice daily by intranasal instillation for 14 consecutive days at doses of 0 (vehicle), 18, 36 or 54 mg/day. At each instillation, the second nostril was dosed immediately after the first nostril. The interval between subsequent instillations into both nostrils was 5 minutes when dosed 2 or 3 times per day.
The vehicle control group received 3 subsequent intranasal instillations of the vehicle into both nostrils (50 μL per nostril) with 5-minute intervals for 14 consecutive days.
The positive control group received a single subcutaneous injection of (+)MK-801 at 48 hours prior to the necropsy of the vehicle control and esketamine HCl-treated animals.
Each group of main study animals consisted of 12 female rats. Four satellite animals were added to the esketamine HCl-dosed groups of main study animals for TK purposes. The plasma exposure to esketamine was measured in these animals on the first and the last day of dosing at various time points up to and including 24 hours after the first instillation.
Due to logistic constraints associated with the whole body perfusion procedure of the animals at necropsy, a staggered start was applied to the study. Consequently, all 5 groups of main study animals were divided into three subgroups of 4 animals each. For each of these subgroups treatment started on a different day. The perfusion procedure is the is the same as described for the single dose study.
All vehicle- and esketamine HCl-treated animals were sacrificed at 48 hours after the last instillation. […] The brain tissue of the vehicle control-, positive control- and esketamine HCl-treated rats were processed at the same time and handled in the same way in batches of 4 animals per group.
Furthermore, clinical observations were recorded for the esketamine HCl-dosed rats on the day of dosing at 0 till 5 minutes, 15 and 30 minutes, and at 1, 2, 4, 6 hours post-dose, at the end of the working day and at 24 hours after the last instillation in the single dose study and on the first day of dosing, after one week and towards the end of the dosing period in the repeated dose study. Body weight and body weight gain were measured daily. Food consumption was measured weekly in the repeated dose study.
On the day of terminal kill, a complete physical examination was performed on the rats in fasted condition and body weight was recorded. The surviving animals were anaesthetized by inhalation of an isoflurane (IsoFlo® Zoetis, Belgium)/oxygen mixture and killed by exsanguination via the carotid artery. […] All terminally killed rats or those killed pre-terminally were perfused with 4% paraformaldehyde in the single dose study and with glutaraldehyde 3% in potassium phosphate buffer 0.09 M with 1.4% sucrose in the repeated dose study.
Brain tissue was sampled and processed routinely. The trimmed and embedded tissue was sectioned and stained with hematoxylin-eosin (HE). Histoprocessing and staining were carried out in three batches of 4 animals per group (each batch thus containing 4 animals from vehicle control-, positive control- and the three esketamine HCl-treated groups). In the single dose study duplicate brain sections were stained with Fluoro-Jade (FJ).
All tissues showing gross abnormalities were examined […]. Histopathological examination was performed on 7 levels of brain tissue according to Bolon (2013. Toxicol. Pathol. 41(7), 1028-1048) from the vehicle control-, positive control-, and high dose esketamine HCl-treated groups in the single dose study, and in all groups in the repeated dose study.

CN[C@]1(c2ccccc2Cl)CCCCC1=O [esketamine, (S)-2-(2-chlorophenyl)-2-(methylamino)cyclohexanone]
AUC (AUClast and AUC∞) variability, range [1]: 25.0% to 30.4
Cmax variability (percent coefficient of variation), range across treatment groups [1]: 35.7% to 36.7
MADRS Suicide Item (Suicidal Thoughts), Change from Baseline, Med ([2]; Day 1(DB): 4H LOCF): −3.0
MADRS Suicide Item (Suicidal Thoughts), Change from Baseline, Med ([2]; Day 1(DB): 4H): −3.0
MADRS Suicide Item (Suicidal Thoughts), Change from Baseline, Med ([2]; Day 2(DB) LOCF): −3.0
MADRS Suicide Item (Suicidal Thoughts), Change from Baseline, Med ([2]; Day 2(DB)): −3.0
MADRS Suicide Item (Suicidal Thoughts), Change from Baseline, Med ([2]; Day 3(DB) LOCF): −4.0
MADRS Suicide Item (Suicidal Thoughts), Change from Baseline, Med ([2]; Day 3(DB)): −4.0
MADRS Suicide Item (Suicidal Thoughts), Change from Baseline, Med ([2]; Day 4(DB) LOCF): −4.0
MADRS Suicide Item (Suicidal Thoughts), Change from Baseline, Med ([2]; Day 4(DB)): −4.0
MADRS Suicide Item (Suicidal Thoughts), Change from Baseline, Med ([2]; Day 5(DB) LOCF): −4.0
MADRS Suicide Item (Suicidal Thoughts), Change from Baseline, Med ([2]; Day 5(DB)): −4.0
MADRS Suicide Item (Suicidal Thoughts), Change from Baseline, Med ([2]; Day 8(DB) LOCF): −4.0
MADRS Suicide Item (Suicidal Thoughts), Change from Baseline, Med ([2]; Day 8(DB)): −4.0
MADRS Suicide Item (Suicidal Thoughts), Change from Baseline, Med ([2]; Day 11(DB) LOCF): −4.0
MADRS Suicide Item (Suicidal Thoughts), Change from Baseline, Med ([2]; Day 11(DB)): −4.0
MADRS Suicide Item (Suicidal Thoughts), Change from Baseline, Med ([2]; Day 15(DB) LOCF): −4.0
MADRS Suicide Item (Suicidal Thoughts), Change from Baseline, Med ([2]; Day 15(DB)): −4.0
MADRS Suicide Item (Suicidal Thoughts), Change from Baseline, Med ([2]; Day 18(DB) LOCF): −4.0
MADRS Suicide Item (Suicidal Thoughts), Change from Baseline, Med ([2]; Day 18(DB)): −4.0
MADRS Suicide Item (Suicidal Thoughts), Change from Baseline, Med ([2]; Day 22(DB) LOCF): −4.0
MADRS Suicide Item (Suicidal Thoughts), Change from Baseline, Med ([2]; Day 22(DB)): −4.0
MADRS Suicide Item (Suicidal Thoughts), Change from Baseline, Med ([2]; Day 25(DB): 4H): −4.5
MADRS Suicide Item (Suicidal Thoughts), Change from Baseline, Med ([2]; Day 25(DB): Predose LOCF): −4.0
MADRS Suicide Item (Suicidal Thoughts), Change from Baseline, Med ([2]; Day 25(DB): Predose): −4.5
MADRS Suicide Item (Suicidal Thoughts), Change from Baseline, Med ([2]; Day 32(FU) LOCF): −4.0
MADRS Suicide Item (Suicidal Thoughts), Change from Baseline, Med ([2]; Day 32(FU)): −4.0
MADRS Suicide Item (Suicidal Thoughts), Change from Baseline, Med ([2]; Day 39(FU) LOCF): −5.0
MADRS Suicide Item (Suicidal Thoughts), Change from Baseline, Med ([2]; Day 39(FU)): −5.0
MADRS Suicide Item (Suicidal Thoughts), Change from Baseline, Med ([2]; Day 46(FU) LOCF): −4.0
MADRS Suicide Item (Suicidal Thoughts), Change from Baseline, Med ([2]; Day 46(FU)): −4.0
MADRS Suicide Item (Suicidal Thoughts), Change from Baseline, Med ([2]; Day 53(FU) LOCF): −4.0
MADRS Suicide Item (Suicidal Thoughts), Change from Baseline, Med ([2]; Day 53(FU)): −5.0
MADRS Suicide Item (Suicidal Thoughts), Change from Baseline, Med ([2]; Day 67(FU) LOCF): −4.0
MADRS Suicide Item (Suicidal Thoughts), Change from Baseline, Med ([2]; Day 67(FU)): −4.0
MADRS Suicide Item (Suicidal Thoughts), Change from Baseline, Med ([2]; Day 81(FU)): −5.0
MADRS Suicide Item (Suicidal Thoughts), Change from Baseline, Med ([2]; End Point(DB)): −4.0
MADRS Suicide Item (Suicidal Thoughts), Change from Baseline, Med ([2]; End Point(FU)): −5.0
AUC-based safety margin compared with the maximum 84 mg clinical dose [3]: ~11 fold
Cmax-based safety margin compared with the maximum 84 mg clinical dose [3]: approximately 17 fold
